Experimental data: US7772241B2, “Variolin derivatives and their use as antitumor agents” (Pharma Mar S.A., priority 2001, dated 2010)
Read-outs that look alike come from different tables or passages of the source.

Columns and labels:
K-562 = test: Inhibition of cells growth by colorimetric (SRB) assay, K-562; conditions: for CC50: read-out: K-562 LC50, SRB assay, 48 hours exposure
In short: (§1)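 Read-out is sulforhodamine B protein stain (OD 490 nm) after cold TCA fixation, following 48 h continuous exposure to samples spanning 10 to 10^−8 μg/ml.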

A-549 = test: Inhibition of cells growth by colorimetric (SRB) assay, A-549; conditions: for CC50: read-out: A-549 LC50, SRB assay, 48 hours exposure
In short: as §1

SK-MEL-28 = test: Inhibition of cells growth by colorimetric (SRB) assay, SK-MEL-28; conditions: for CC50: read-out: MEL-28 LC50, SRB assay, 48 hours exposure
In short: as §1

HT-29 = test: Inhibition of cells growth by colorimetric (SRB) assay, HT-29; conditions: for CC50: read-out: HT-29 LC50, SRB assay, 48 hours exposure
In short: as §1

LoVo = test: Inhibition of cells growth by colorimetric (SRB) assay, LoVo; conditions: for CC50: read-out: LOVO LC50, SRB assay, 48 hours exposure
In short: as §1

LoVo-Dox = test: Inhibition of cells growth by colorimetric (SRB) assay, LoVo-Dox; conditions: for CC50: read-out: LOVO-DOX LC50, SRB assay, 48 hours exposure
In short: as §1

DU-145 = test: Inhibition of cells growth by colorimetric (SRB) assay, DU-145
In short: as §1

LNCaP = test: Inhibition of cells growth by colorimetric (SRB) assay, LNCaP
In short: as §1

SK-BR-3 = test: Inhibition of cells growth by colorimetric (SRB) assay, SK-BR-3; conditions: for GI50 / CC50: Homo sapiens, SK-BR-3, 48 h; for GI50: read-out: SK-BR-3 GI50, SRB assay, 48 hours exposure; for CC50: read-out: SK-BR-3 LC50, SRB assay, 48 hours exposure; for SK-BR-3 TGI: SRB assay, 48 hours exposure
In short: as §1

IGROV-1 = test: Inhibition of cells growth by colorimetric (SRB) assay, IGROV-1; conditions: for CC50: read-out: IGROV LC50, SRB assay, 48 hours exposure
In short: as §1

IGROV-ET = test: Inhibition of cells growth by colorimetric (SRB) assay, IGROV-ET; conditions: for CC50: read-out: IGROV-ET LC50, SRB assay, 48 hours exposure
In short: as §1

HeLa = test: Inhibition of cells growth by colorimetric (SRB) assay, HeLa; on HELA TGI: unit not given here
In short: as §1

HeLa-APL = test: Inhibition of cells growth by colorimetric (SRB) assay, HeLa-APL
In short: as §1

PANC-1 = test: Inhibition of cells growth by colorimetric (SRB) assay, PANC-1; conditions: for CC50: read-out: PANC-1 LC50, SRB assay, 48 hours exposure
In short: as §1

In the case of `CSc1nccc(-c2c3c(N)ccnc3n3c(N)nccc23)n1.Cl` [Compound 93], the GI50 (K-562; Homo sapiens, K562, 48 h, read-out: K-562 GI50, SRB assay, 48 hours exposure) is reported as 898 nM, the CC50 (K-562; Homo sapiens, K562, 48 h) is reported as 25200 nM and the “K-562 TGI” value (K-562; SRB assay, 48 hours exposure) is reported as 1.57E−06. For the same compound, the GI50 (A-549; Homo sapiens, A549, 48 h, read-out: A-549 GI50, SRB assay, 48 hours exposure) was 249 nM, the CC50 (A-549; Homo sapiens, A549, 48 h) was 5980 nM and the “A-549 TGI” value (A-549; SRB assay, 48 hours exposure) was 9.34E−07. For the same compound, the GI50 (SK-MEL-28; Homo sapiens, SK-MEL-28, 48 h, read-out: MEL-28 GI50, SRB assay, 48 hours exposure) was 767 nM, the CC50 (SK-MEL-28; Homo sapiens, SK-MEL-28, 48 h) was 10700 nM and the “MEL-28 TGI” value (SK-MEL-28; SRB assay, 48 hours exposure) was 3.71E−06. For the same compound, the GI50 (HT-29; Homo sapiens, HT-29, 48 h, read-out: HT-29 GI50, SRB assay, 48 hours exposure) was 176 nM, the CC50 (HT-29; Homo sapiens, HT-29, 48 h) was 25200 nM and the “HT-29 TGI” value (HT-29; SRB assay, 48 hours exposure) was 1.32E−06. For the same compound, the GI50 (LoVo; Homo sapiens, LoVo, 48 h, read-out: LOVO GI50, SRB assay, 48 hours exposure) was 984 nM, the CC50 (LoVo; Homo sapiens, LoVo, 48 h) was 17400 nM and the “LOVO TGI” value (LoVo; SRB assay, 48 hours exposure) was 3.84E−06. The GI50 (LoVo-Dox; Homo sapiens, 48 h, read-out: LOVO-DOX GI50, SRB assay, 48 hours exposure) was 699 nM, the CC50 (LoVo-Dox; Homo sapiens, 48 h) was 25200 nM and the “LOVO-DOX TGI” value (LoVo-Dox; SRB assay, 48 hours exposure) was 1.68E−06. The GI50 (DU-145; Homo sapiens, DU-145, 48 h, read-out: DU-145 GI50, SRB assay, 48 hours exposure) was 64.6 nM, the CC50 (DU-145; Homo sapiens, DU-145, 48 h, read-out: DU-145 LC50, SRB assay, 48 hours exposure) was 2330 nM and the “DU-145 TGI” value (DU-145; SRB assay, 48 hours exposure) was 4.16E−07. The GI50 (LNCaP; Homo sapiens, LNCaP, 48 h, read-out: LN-caP GI50, SRB assay, 48 hours exposure) was 127 nM, the CC50 (LNCaP; Homo sapiens, LNCaP, 48 h, read-out: LN-caP LC50, SRB assay, 48 hours exposure) was 1670 nM and the “LN-caP TGI” value (LNCaP; SRB assay, 48 hours exposure) was 3.68E−07. For the same compound, the GI50 (SK-BR-3) was 326 nM, the CC50 (SK-BR-3) was 15600 nM and the “SK-BR-3 TGI” value (SK-BR-3) was 1.59E−06. The GI50 (IGROV-1; Homo sapiens, IGROV-1, 48 h, read-out: IGROV GI50, SRB assay, 48 hours exposure) was 144 nM, the CC50 (IGROV-1; Homo sapiens, IGROV-1, 48 h) was 25200 nM and the “IGROV TGI” value (IGROV-1; SRB assay, 48 hours exposure) was 8.76E−07. For the same compound, the GI50 (IGROV-ET; Homo sapiens, 48 h, read-out: IGROV-ET GI50, SRB assay, 48 hours exposure) was 860 nM, the CC50 (IGROV-ET; Homo sapiens, 48 h) was 2520 nM and the “IGROV-ET TGI” value (IGROV-ET; SRB assay, 48 hours exposure) was 2.09E−06. The GI50 (HeLa; Homo sapiens, HeLa, 48 h, read-out: HELA GI50, SRB assay, 48 hours exposure) was 2.52 nM, the “HELA TGI” value (HeLa; SRB assay, 48 hours exposure) was 5.10E−09 and the GI50 (HeLa-APL; Homo sapiens, 48 h, read-out: HELA-APL GI50, SRB assay, 48 hours exposure) was 4.67 nM. For the same compound, the CC50 (HeLa-APL; Homo sapiens, 48 h, read-out: HELA-APL LC50, SRB assay, 48 hours exposure) was 29 nM, the “HELA-APL TGI” value (HeLa-APL; SRB assay, 48 hours exposure) was 6.03E−09 and the GI50 (PANC-1; Homo sapiens, PANC-1, 48 h, read-out: PANC-1 GI50, SRB assay, 48 hours exposure) was 220 nM. For the same compound, the CC50 (PANC-1; Homo sapiens, PANC-1, 48 h) was 25200 nM and the “PANC-1 TGI” value (PANC-1; SRB assay, 48 hours exposure) was 2.78E−06.

`CSc1nccc(-c2c3c(O)ccnc3n3c(N)nccc23)n1.Cl` [Compound 97] was tested, and the CC50 (K-562; Homo sapiens, K562, 48 h) was 24400 nM, the “K-562 TGI” value (K-562; SRB assay, 48 hours exposure) was 8.34E−06 and the GI50 (K-562; read-out: K-562 GI50, SRB assay, 48 hours exposure) was 2850 nM. For the same compound, the CC50 (A-549; Homo sapiens, A549, 48 h) was 22300 nM, the “A-549 TGI” value (A-549; SRB assay, 48 hours exposure) was 4.55E−06 and the GI50 (A-549; read-out: A-549 GI50, SRB assay, 48 hours exposure) was 707 nM. The CC50 (SK-MEL-28; Homo sapiens, SK-MEL-28, 48 h) was 18000 nM, the “MEL-28 TGI” value (SK-MEL-28; SRB assay, 48 hours exposure) was 7.43E−06 and the GI50 (SK-MEL-28; read-out: MEL-28 GI50, SRB assay, 48 hours exposure) was 3080 nM. The CC50 (HT-29; Homo sapiens, HT-29, 48 h) was 18700 nM, the “HT-29 TGI” value (HT-29; SRB assay, 48 hours exposure) was 4.85E−06 and the GI50 (HT-29; read-out: HT-29 GI50, SRB assay, 48 hours exposure) was 457 nM. The CC50 (LoVo; Homo sapiens, LoVo, 48 h) was 27700 nM, the “LOVO TGI” value (LoVo; SRB assay, 48 hours exposure) was 1.27E−05 and the GI50 (LoVo; read-out: LOVO GI50, SRB assay, 48 hours exposure) was 5070 nM. The CC50 (LoVo-Dox; Homo sapiens, 48 h) was 27700 nM, the “LOVO-DOX TGI” value (LoVo-Dox; SRB assay, 48 hours exposure) was 1.93E−05 and the GI50 (LoVo-Dox; read-out: LOVO-DOX GI50, SRB assay, 48 hours exposure) was 7510 nM. The “DU-145 TGI” value (DU-145; SRB assay, 48 hours exposure) was 3.19E−06, the GI50 (DU-145; read-out: DU-145 GI50, SRB assay, 48 hours exposure) was 257 nM and the CC50 (DU-145; read-out: DU-145 LC50, SRB assay, 48 hours exposure) was 12800 nM. The “LN-caP TGI” value (LNCaP; SRB assay, 48 hours exposure) was 2.88E−07, the GI50 (LNCaP; read-out: LN-caP GI50, SRB assay, 48 hours exposure) was 109 nM and the CC50 (LNCaP; read-out: LN-caP LC50, SRB assay, 48 hours exposure) was 5820 nM. The GI50 (SK-BR-3) was 1920 nM, the CC50 (SK-BR-3) was 23600 nM and the “SK-BR-3 TGI” value (SK-BR-3) was 7.37E−06. For the same compound, the CC50 (IGROV-1; Homo sapiens, IGROV-1, 48 h) was 27000 nM, the “IGROV TGI” value (IGROV-1; SRB assay, 48 hours exposure) was 3.10E−06 and the GI50 (IGROV-1; read-out: IGROV GI50, SRB assay, 48 hours exposure) was 93.1 nM. For the same compound, the CC50 (IGROV-ET; Homo sapiens, 48 h) was 27700 nM, the “IGROV-ET TGI” value (IGROV-ET; SRB assay, 48 hours exposure) was 8.12E−06 and the GI50 (IGROV-ET; read-out: IGROV-ET GI50, SRB assay, 48 hours exposure) was 1520 nM. The “HELA TGI” value (HeLa; SRB assay, 48 hours exposure) was 1.28E−07, the GI50 (HeLa; read-out: HELA GI50, SRB assay, 48 hours exposure) was 57.6 nM and the “HELA-APL TGI” value (HeLa-APL; SRB assay, 48 hours exposure) was 1.77E−07. It also gave a GI50 (HeLa-APL; read-out: HELA-APL GI50, SRB assay, 48 hours exposure) of 78.7 nM, a CC50 (HeLa-APL; read-out: HELA-APL LC50, SRB assay, 48 hours exposure) of 1850 nM and a CC50 (PANC-1; Homo sapiens, PANC-1, 48 h) of 24600 nM. The “PANC-1 TGI” value (PANC-1; SRB assay, 48 hours exposure) was 9.98E−06 and the GI50 (PANC-1; read-out: PANC-1 GI50, SRB assay, 48 hours exposure) was 4050 nM.
